Measured values taken from patent publication US20040014721A1, “Method for using tethered bis(polyhydroxyphenyls) and O-alkyl derivatives thereof in treating inflammatory conditions of the central nervous system” (Oklahoma Medical Research Foundation, priority 2002, published 2004).

Test system: TNFα-Stimulated NO2^− Production in EOC-20 Cells
Test: TNFα-stimulated nitrite (NO2−) production in EOC-20 microglial cells, Griess assay
Type: cell-based, mouse
Conditions: not given
Protocol: Cells were cultured in 24 well plates until confluent then treated with test agent, which was dissolved at 100× final concentration in dimethylsulfoxide (DMSO), or with vehicle only. Thirty minutes after treatment with test agent, cells were treated with 10 ng/mL recombinant mouse TNFα (Pharmingen, San Diego, Calif. USA). […] Each compound was tested at 100 μM, 20 μM, 4 μM, 0.8 μM and 0 μM in the presence of TNFα. Four wells of cells were used for each concentration of test agent.
(§1) Lower IC50 values indicate improved efficacy. FIG. 2 illustrates the principle of the measurement using NDGA as an example test agent. In order to determine viability, cell culture medium was replaced with phenol-free DMEM (Gibco) containing 20 μL/mL of MTT viability reagent (Promega). […] Control cells were taken to indicate 100% viability and intermediate values of MTT reduction were scaled to percentage of control. For each compound, an LD50 value was determined by extrapolation through sublethal concentrations. This value represents the concentration that reduced the MTT viability parameter by 50%.

SMILES	activity against TNFα-stimulated nitrite production
CC(c1cc2ccccc2s1)N(O)C(N)=O (stereo not drawn) [Zileuton]	approximately as effective as minocycline
COc1ccc2c(c1)c(CC(=O)O)c(C)n2C(=O)c1ccc(Cl)cc1 [Indomethacin]	weak activity
CC(C)Cc1ccc(C(C)C(=O)O)cc1 (stereo not drawn) [Ibuprofen]	weak activity
CS(=O)(=O)Nc1ccc([N+](=O)[O-])cc1OC1CCCCC1 [NS-398]	essentially inactive

Same assay, conditions: Mus musculus

SMILES	IC50
COc1cccc2c1cc([N+](=O)[O-])c1c(C(=O)O)cc3c(c12)OCO3 [Aristolochic acid]	29 µM

Same assay, conditions: Mus musculus, 24 h, Table III; 10 ng/mL TNFα, 24 hr; by interpolation; read-out: IC50

IC50	SMILES
114 µM	O=c1c(-c2ccc(O)cc2)coc2cc(O)ccc12 [Daidzein, 4,7-dihydroxyisoflavone]
47 µM	O=c1c(O)c(-c2ccc(O)cc2)oc2cc(O)cc(O)c12 [Kaempherol, 3,4′,5,7-tetrahydroxy-flavone]
41 µM	O=c1c(O)c(-c2ccccc2)oc2cc(O)cc(O)c12 [3,5,7-trihydroxy-flavone (galangin), 3,5,7-trihydroxy-flavone]
49 µM	COc1ccc(-c2coc3cc(O)cc(O)c3c2=O)cc1 [4′-methoxy-5,7-dihydroxyisoflavone]
5.1 µM	O=C(/C=C/c1ccc(O)c(O)c1)c1ccc(O)cc1O [butein (2′,4′,3,4-tetrahydroxychalcone), 2′,4′,3,4-tetrahydroxychalcone]
110 µM	O=c1oc2c(O)c(O)cc3c(=O)oc4c(O)c(O)cc1c4c23 [Ellagic acid]
106 µM	COc1ccc(-c2coc3cc(O)ccc3c2=O)cc1
49 µM	CN(C)c1ccc(O)c2c1C[C@H]1C[C@H]3[C@H](N(C)C)C(O)=C(C(N)=O)C(=O)[C@@]3(O)C(O)=C1C2=O [Minocycline]

SMILES	IC50
O=c1c(-c2ccc(O)cc2)coc2cc(O)cc(O)c12 [4′,5,7-trihydroxy-isoflavone (genistein), 4′,5,7-trihydroxy-isoflavone]	46 µM
O=c1cc(-c2ccccc2)oc2cc(O)cc(O)c12 [Chrysin, 5,7-dihydroxy-flavone]	63 µM
C[C@H](Cc1ccc(O)c(O)c1)[C@@H](C)Cc1ccc(O)c(O)c1 [NDGA (natural), nordihydroguaiaretic acid]	3.1 µM
O=c1cc(-c2ccc(O)cc2)oc2cc(O)cc(O)c12 [4′,5,7-trihydroxy-flavone (apigenin), 4′,5,7-trihydroxy-flavone]	55 µM
COc1ccc2c(c1)c(CC(=O)O)c(C)n2C(=O)c1ccc(Cl)cc1 [Indomethacin]	61 µM
O=c1cc(-c2ccccc2)oc2ccccc12 [Flavone]	60 µM
O=C(/C=C/c1ccc(O)c(O)c1)O[C@H](Cc1ccc(O)c(O)c1)C(=O)O [Rosemarinic acid]	139 µM

Same assay, conditions: Mus musculus, Table V; * obtained by linear extrapolation from points ≦100 μM; read-out: IC50

SMILES	IC50
CC(c1cc2ccccc2s1)N(O)C(N)=O (stereo not drawn) [Zileuton]	105 µM
CS(=O)(=O)Nc1ccc([N+](=O)[O-])cc1OC1CCCCC1 [NS-398]	108 µM

Same assay, conditions: Mus musculus, Table V; read-out: IC50

SMILES	IC50
C[C@H](Cc1ccc(O)c(O)c1)[C@@H](C)Cc1ccc(O)c(O)c1 [NDGA (natural), nordihydroguaiaretic acid]	3 µM
c1cc2c(cc1[C@H]1OC[C@H]3[C@@H]1CO[C@@H]3c1ccc3c(c1)OCO3)OCO2 [Sesamin, sesamin]	42 µM
CS(=O)(=O)Nc1ccc([N+](=O)[O-])cc1Oc1ccccc1 [Nimesulide]	20 µM
COc1ccc2c(c1)c(CC(=O)O)c(C)n2C(=O)c1ccc(Cl)cc1 [Indomethacin]	61 µM

Same assay, conditions: Mus musculus; Table III; 10 ng/mL TNFα, 24 hr; by interpolation; read-out: IC50

SMILES	IC50
COc1cc(O)c2c(=O)c(-c3ccc(O)cc3)coc2c1 [4′,5-dihydroxy-7-methoxy-isoflavone]	120 µM
CN(C)[C@@H]1C(O)=C(C(N)=O)C(=O)[C@@]2(O)C(O)=C3C(=O)c4c(O)cccc4[C@@](C)(O)[C@H]3C[C@@H]12 [Tetracycline]	85 µM

Same assay, conditions: Table III; 10 ng/mL TNFα, 24 hr; by interpolation

SMILES	IC50
C[C@@H]1C(=O)O[C@H]2C[C@@]34[C@H]5C[C@@H](C(C)(C)C)[C@]36[C@@H](OC(=O)[C@@H]6O)O[C@@]4(C(=O)O5)[C@]21O [gingkolide A]	Inactive
CC(C)Cc1ccc(C(C)C(=O)O)cc1 (stereo not drawn) [Ibuprofen]	Inactive

Same assay, conditions: Table V

IC50	SMILES
Inactive	CC(C)Cc1ccc(C(C)C(=O)O)cc1 (stereo not drawn) [Ibuprofen]

Test system: EOC-20 cells
Test: not given
Conditions: not given
Protocol: as §1

SMILES	LD50
CC(c1cc2ccccc2s1)N(O)C(N)=O (stereo not drawn) [Zileuton]	Nontoxic
O=c1oc2c(O)c(O)cc3c(=O)oc4c(O)c(O)cc1c4c23 [Ellagic acid]	nontoxic
O=C(/C=C/c1ccc(O)c(O)c1)O[C@H](Cc1ccc(O)c(O)c1)C(=O)O [Rosemarinic acid]	nontoxic
CN(C)[C@@H]1C(O)=C(C(N)=O)C(=O)[C@@]2(O)C(O)=C3C(=O)c4c(O)cccc4[C@@](C)(O)[C@H]3C[C@@H]12 [Tetracycline]	nontoxic

Same assay, conditions: Table III; MTT viability; by extrapolation through sublethal concentrations

SMILES	LD50
O=c1c(-c2ccc(O)cc2)coc2cc(O)cc(O)c12 [4′,5,7-trihydroxy-isoflavone (genistein), 4′,5,7-trihydroxy-isoflavone]	nontoxic
C[C@@H]1C(=O)O[C@H]2C[C@@]34[C@H]5C[C@@H](C(C)(C)C)[C@]36[C@@H](OC(=O)[C@@H]6O)O[C@@]4(C(=O)O5)[C@]21O [gingkolide A]	nontoxic
O=c1cc(-c2ccccc2)oc2cc(O)cc(O)c12 [Chrysin, 5,7-dihydroxy-flavone]	85 μm
COc1cc(O)c2c(=O)c(-c3ccc(O)cc3)coc2c1 [4′,5-dihydroxy-7-methoxy-isoflavone]	nontoxic
O=c1cc(-c2ccc(O)cc2)oc2cc(O)cc(O)c12 [4′,5,7-trihydroxy-flavone (apigenin), 4′,5,7-trihydroxy-flavone]	87 μm
COc1ccc2c(c1)c(CC(=O)O)c(C)n2C(=O)c1ccc(Cl)cc1 [Indomethacin]	124 μm
O=c1cc(-c2ccccc2)oc2ccccc12 [Flavone]	7 μm

Same assay, conditions: Table V

SMILES	LD50
COc1cccc2c1cc([N+](=O)[O-])c1c(C(=O)O)cc3c(c12)OCO3 [Aristolochic acid]	100 µM
c1cc2c(cc1[C@H]1OC[C@H]3[C@@H]1CO[C@@H]3c1ccc3c(c1)OCO3)OCO2 [Sesamin, sesamin]	Nontoxic

Same assay, conditions: Table V; * obtained by linear extrapolation from points ≦100 μM

SMILES	LD50
COc1ccc2c(c1)c(CC(=O)O)c(C)n2C(=O)c1ccc(Cl)cc1 [Indomethacin]	124* μM
CS(=O)(=O)Nc1ccc([N+](=O)[O-])cc1OC1CCCCC1 [NS-398]	129* μM

Same assay, conditions: mouse

SMILES	LD50
O=c1c(O)c(-c2ccc(O)cc2)oc2cc(O)cc(O)c12 [Kaempherol, 3,4′,5,7-tetrahydroxy-flavone]	70 μm
O=c1c(O)c(-c2ccccc2)oc2cc(O)cc(O)c12 [3,5,7-trihydroxy-flavone (galangin), 3,5,7-trihydroxy-flavone]	58 μm
COc1ccc(-c2coc3cc(O)cc(O)c3c2=O)cc1 [4′-methoxy-5,7-dihydroxyisoflavone]	112 μm
O=C(/C=C/c1ccc(O)c(O)c1)c1ccc(O)cc1O [butein (2′,4′,3,4-tetrahydroxychalcone), 2′,4′,3,4-tetrahydroxychalcone]	77 μm
COc1ccc(-c2coc3cc(O)ccc3c2=O)cc1	126 μm

Test system: LnCAP Production of PSA
Test: LnCAP production of PSA (ELISA)
Type: cell-based
Conditions: Homo sapiens, LNCaP, 24 h
Protocol: LnCAP prostate cancer cells were be cultured according to established methods (Horoszewicz et al., 1983). These cells product prostate-specific antigen (PSA), a serine protease that predicts metastatic potential ([…] et al., 2000). […] Each drug was tested in triplicate at each concentration. Medium was removed and tested for PSA concentration using a commercially available enzyme-linked immunosorbent assay (ELISA). Viability was determined in the adherent cells using the MTT assay.

SMILES	IC50
O=c1cc(-c2ccccc2)oc2cc(O)cc(O)c12 [Chrysin, 5,7-dihydroxy-flavone]	91 µM
O=c1c(O)c(-c2ccc(O)cc2)oc2cc(O)cc(O)c12 [Kaempherol, 3,4′,5,7-tetrahydroxy-flavone]	68 µM

Same assay, conditions: Homo sapiens, LNCaP; 24 h; extrapolated

IC50	SMILES
130 µM	O=c1c(-c2ccc(O)cc2)coc2cc(O)ccc12 [Daidzein, 4,7-dihydroxyisoflavone]
